Laboratory results taken from patent publication US20060069132A1, “Azolecarboxamide herbicides” (priority 2004, published 2006).

Tests used:
[1] = system: common ragweed; test: Test C pre-/postemergence herbicide test; type: in vivo, Ambrosia elatior; set-up: key to Plant response rating, Ragweed: 0 = no effect, 100 = complete control; conditions: for Ragweed plant response rating: Preemergence
Procedure, shortened: (§1)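 Preemergence: seeds planted and treated with compound in non-phytotoxic solvent with surfactant; postemergence: plants at 2 to 18 cm (1- to 4-leaf stage) sprayed likewise. Kept in greenhouse 12 to 14 days, then visually rated against controls, 0 (no effect) to 100 (complete control).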

[2] = system: soybean; test: Test C pre-/postemergence herbicide test; type: in vivo, Glycine max; conditions: for Soybean plant response rating: Preemergence
Procedure, shortened: as §1

[3] = system: giant foxtail; test: Test C pre-/postemergence herbicide test; type: in vivo, Setaria faberi; conditions: for Foxtail, Giant plant response rating: Preemergence
Procedure, shortened: as §1

[4] = system: velvetleaf; test: Test A pre-/postemergence herbicide test; type: in vivo, Abutilon theophrasti
Procedure, shortened: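 Sandy loam soil given preemergence directed spray; plants at 2 to 10 cm, one- to two-leaf stage, sprayed to runoff postemergence, compounds in non-phytotoxic solvent with surfactant. Injury rated visually versus untreated controls after about ten greenhouse days, 0 (no effect) to 100 (complete control); dash means not tested.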

[5] = system: corn; test: Test C pre-/postemergence herbicide test; type: in vivo, Zea mays; conditions: for Corn plant response rating: Preemergence
Procedure, shortened: as §1

[6] = system: kochia; test: Test C pre-/postemergence herbicide test; type: in vivo, Kochia scoparia; conditions: for Kochia plant response rating: Preemergence
Procedure, shortened: as §1

[7] = system: morningglory; test: Test C pre-/postemergence herbicide test; type: in vivo, Ipomoea coccinea; set-up: key to Plant response rating, Morningglory: 0 = no effect, 100 = complete control; conditions: for Morningglory plant response rating: Preemergence
Procedure, shortened: as §1

[8] = system: Surinam grass; test: Test C pre-/postemergence herbicide test; type: in vivo, Urochloa decumbens; conditions: for Surinam Grass plant response rating: Preemergence
Procedure, shortened: as §1

[9] = 62 g ai/ha, preemergence, scale 0 to 100
[10] = 125 g ai/ha, scale 0 (no effect) to 100 (complete control), visual, 12 to 14 days, preemergence
[11] = 500 g ai/ha, scale 0 to 100, 0 no effect, 100 complete control
[12] = 250 g ai/ha, scale 0 to 100 (0 no effect, 100 complete control), visual, 12 to 14 days, preemergence
[13] = Postemergence, 500 g ai/ha, 0 to 100 scale, 0 no effect, 100 complete control
[14] = Postemergence, 2000 g ai/ha, 0 to 100 scale, 0 no effect, 100 complete control
[15] = Preemergence, 2000 g ai/ha, visual rating, 0 to 100 scale (0 no effect, 100 complete control)
[16] = preemergence, 500 g ai/ha, visual injury, 0 to 100 scale (0 no effect, 100 complete control)
[17] = Postemergence, 250 g ai/ha, scale 0 to 100, 0 no effect, 100 complete control
[18] = Postemergence, 500 g ai/ha, scale 0 to 100, 0 no effect, 100 complete control
[19] = postemergence, 125 g ai/ha, scale 0 to 100
[20] = postemergence, 62 g ai/ha, scale 0 to 100

Question: How did the “Plant response rating, Ragweed” value [1, 9] turn out when CCN(CC)C(=O)c1ccnc(NC(=O)c2cc(C(C)(C)C)nn2CC)c1 [Compound 153] was run?
Answer: The value was 0.

Question: What about the “Plant response rating, Ragweed” value [1, 10] of the same compound?
Answer: Its value is 0.

Question: And the “Ragweed plant response rating” value [1, 11]?
Answer: The value was 100.

Question: What about the “Plant response rating, Soybean” value [2, 9] of the same compound?
Answer: Its value is 0.

Question: What about the “Plant response rating, Soybean” value [2, 10] of the same compound?
Answer: The value was 0.

Question: What about the “Soybean plant response rating” value [2, 11] of the same compound?
Answer: Its value is 15.

Question: And the “Plant response rating, Foxtail, Giant” value [3, 9]?
Answer: The value was 0.

Question: What about the “Plant response rating, Foxtail, Giant” value [3, 10] of the same compound?
Answer: Its value is 0.

Question: What about the “Plant response rating, Foxtail, Giant” value [3, 12] of the same compound?
Answer: Its value is 0.

Question: And the “Foxtail, Giant plant response rating” value [3, 11]?
Answer: The value was 0.

Question: What about the “Velvetleaf plant response rating” value [4, 13] of the same compound?
Answer: The value was 40.

Question: What about the “Plant response rating, Velvetleaf” value [4, 14] of the same compound?
Answer: The value was 65.

Question: And the “Velvetleaf plant response rating” value [4, 15]?
Answer: Its value is 80.

Question: And the “Velvetleaf plant response rating” value [4, 16]?
Answer: Its value is 15.

Question: What about the “Plant response rating, Corn” value [5, 9] of the same compound?
Answer: Its value is 0.

Question: What about the “Plant response rating, Corn” value [5, 10] of the same compound?
Answer: The value was 0.

Question: And the “Plant response rating, Corn” value [5, 12]?
Answer: The value was 0.

Question: What about the “Corn plant response rating” value [5, 11] of the same compound?
Answer: Its value is 0.

Question: What about the “Plant response rating, Kochia” value [6, 9] of the same compound?
Answer: The value was 65.

Question: What about the “Plant response rating, Kochia” value [6, 10] of the same compound?
Answer: The value was 95.

Question: And the “Kochia plant response rating” value [6, 11]?
Answer: Its value is 100.

Question: What about the “Plant response rating, Morningglory” value [7, 9] of the same compound?
Answer: The value was 0.

Question: What about the “Plant response rating, Morningglory” value [7, 10] of the same compound?
Answer: The value was 0.

Question: And the “Morningglory plant response rating” value [7, 11]?
Answer: Its value is 15.

Question: And the “Plant response rating, Surinam Grass” value [8, 9]?
Answer: The value was 0.

Question: What about the “Plant response rating, Surinam Grass” value [8, 10] of the same compound?
Answer: Its value is 0.

Question: And the “Surinam Grass plant response rating” value [8, 11]?
Answer: Its value is 100.

Question: How did the “Plant response rating, Ragweed” value [1, 17] turn out when CCn1nc(C(C)(C)C)cc1C(=O)Nc1cc(OC(F)(F)F)ccc1F [Compound 338] was run?
Answer: Its value is 5.

Question: And the “Plant response rating, Ragweed” value [1, 18]?
Answer: The value was 10.

Question: What about the “Plant response rating, Ragweed” value [1, 19] of the same compound?
Answer: Its value is 5.

Question: And the “Plant response rating, Ragweed” value [1, 20]?
Answer: The value was 0.

Question: And the “Plant response rating, Soybean” value [2, 17]?
Answer: The value was 35.

Question: And the “Plant response rating, Soybean” value [2, 18]?
Answer: The value was 60.

Question: And the “Plant response rating, Soybean” value [2, 19]?
Answer: Its value is 30.

Question: And the “Plant response rating, Soybean” value [2, 20]?
Answer: The value was 10.

Question: And the “Plant response rating, Foxtail, Giant” value [3, 17]?
Answer: The value was 10.

Question: And the “Plant response rating, Foxtail, Giant” value [3, 18]?
Answer: The value was 10.

Question: And the “Plant response rating, Foxtail, Giant” value [3, 19]?
Answer: Its value is 5.

Question: What about the “Plant response rating, Foxtail, Giant” value [3, 20] of the same compound?
Answer: The value was 5.

Question: And the “Velvetleaf plant response rating” value [4, 13]?
Answer: The value was 40.

Question: And the “Plant response rating, Velvetleaf” value [4, 14]?
Answer: The value was 60.

Question: What about the “Velvetleaf plant response rating” value [4, 15] of the same compound?
Answer: Its value is 50.

Question: What about the “Velvetleaf plant response rating” value [4, 16] of the same compound?
Answer: The value was 20.

Question: What about the “Plant response rating, Corn” value [5, 17] of the same compound?
Answer: The value was 10.

Question: And the “Plant response rating, Corn” value [5, 18]?
Answer: The value was 10.

Question: What about the “Plant response rating, Corn” value [5, 19] of the same compound?
Answer: The value was 0.

Question: And the “Plant response rating, Corn” value [5, 20]?
Answer: Its value is 0.

Question: What about the “Plant response rating, Kochia” value [6, 17] of the same compound?
Answer: The value was 90.

Question: And the “Plant response rating, Kochia” value [6, 18]?
Answer: Its value is 90.

Question: What about the “Plant response rating, Kochia” value [6, 19] of the same compound?
Answer: Its value is 60.

Question: And the “Plant response rating, Kochia” value [6, 20]?
Answer: The value was 50.

Question: And the “Plant response rating, Morningglory” value [7, 17]?
Answer: Its value is 40.

Question: And the “Plant response rating, Morningglory” value [7, 18]?
Answer: Its value is 50.

Question: What about the “Plant response rating, Morningglory” value [7, 19] of the same compound?
Answer: The value was 0.

Question: What about the “Plant response rating, Morningglory” value [7, 20] of the same compound?
Answer: Its value is 0.

Question: And the “Plant response rating, Surinam Grass” value [8, 17]?
Answer: Its value is 0.

Question: And the “Plant response rating, Surinam Grass” value [8, 18]?
Answer: The value was 30.

Question: And the “Plant response rating, Surinam Grass” value [8, 19]?
Answer: Its value is 0.

Question: And the “Plant response rating, Surinam Grass” value [8, 20]?
Answer: Its value is 0.

Question: For CCCCOc1cccc(NC(=O)c2cc(C(C)(C)C)nn2CC)c1 [Compound 137], which “Plant response rating (0 = no effect, 100 = complete control), Ragweed” value ([1]; 62 g ai/ha, preemergence) is on record?
Answer: Its value is 0.

Question: And the “Plant response rating, Ragweed” value [1, 10]?
Answer: The value was 0.

Question: What about the “Ragweed plant response rating” value [1, 11] of the same compound?
Answer: Its value is 100.

Question: And the “Plant response rating (0 = no effect, 100 = complete control), Soybean” value ([2]; 62 g ai/ha, preemergence)?
Answer: The value was 0.

Question: What about the “Plant response rating, Soybean” value [2, 10] of the same compound?
Answer: Its value is 0.

Question: And the “Soybean plant response rating” value [2, 11]?
Answer: Its value is 10.

Question: And the “Plant response rating (0 = no effect, 100 = complete control), Foxtail, Giant” value ([3]; 62 g ai/ha, preemergence)?
Answer: Its value is 10.

Question: And the “Plant response rating, Foxtail, Giant” value [3, 10]?
Answer: The value was 50.

Question: What about the “Plant response rating, Foxtail, Giant” value [3, 12] of the same compound?
Answer: The value was 60.

Question: What about the “Foxtail, Giant plant response rating” value [3, 11] of the same compound?
Answer: Its value is 85.

Question: What about the “Velvetleaf plant response rating” value [4, 13] of the same compound?
Answer: The value was 60.

Question: And the “Plant response rating, Velvetleaf” value [4, 14]?
Answer: Its value is 70.

Question: What about the “Velvetleaf plant response rating” value [4, 15] of the same compound?
Answer: Its value is 35.

Question: What about the “Velvetleaf plant response rating” value [4, 16] of the same compound?
Answer: Its value is 20.

Question: What about the “Plant response rating (0 = no effect, 100 = complete control), Corn” value ([5]; 62 g ai/ha, preemergence) of the same compound?
Answer: The value was 0.

Question: And the “Plant response rating, Corn” value [5, 10]?
Answer: Its value is 5.

Question: And the “Plant response rating, Corn” value [5, 12]?
Answer: The value was 5.

Question: And the “Corn plant response rating” value [5, 11]?
Answer: Its value is 5.

Question: What about the “Plant response rating (0 = no effect, 100 = complete control), Kochia” value ([6]; 62 g ai/ha, preemergence) of the same compound?
Answer: Its value is 80.

Question: What about the “Plant response rating, Kochia” value [6, 10] of the same compound?
Answer: The value was 90.

Question: And the “Kochia plant response rating” value [6, 11]?
Answer: Its value is 100.

Question: And the “Plant response rating (0 = no effect, 100 = complete control), Morningglory” value ([7]; 62 g ai/ha, preemergence)?
Answer: Its value is 0.

Question: And the “Plant response rating, Morningglory” value [7, 10]?
Answer: Its value is 0.

Question: What about the “Morningglory plant response rating” value [7, 11] of the same compound?
Answer: The value was 60.

Question: What about the “Plant response rating (0 = no effect, 100 = complete control), Surinam Grass” value ([8]; 62 g ai/ha, preemergence) of the same compound?
Answer: Its value is 0.

Question: What about the “Plant response rating, Surinam Grass” value [8, 10] of the same compound?
Answer: Its value is 10.

Question: What about the “Surinam Grass plant response rating” value [8, 11] of the same compound?
Answer: The value was 60.
